Experimental data reported in patent US20140105879A1, “FLOUR-BASED FUNCTIONAL FOOD” (priority 2011, published 2014).

Tested on: HMG-CoA reductase
Experiment: action on the enzyme HMG-CoA reductase (further experimental data)
Source text: Therefore, the functional bread to which vegetable extracts have been added according to the present invention is capable of exerting a functional, salutary action in prevention and treatment of cholesterol and triglyceride levels exceeding the reference values, in addition to an action of protecting the arteries and the cardio-circulatory system and a hepatoprotective and antioxidant action, thanks to the synergistic biochemical actions of the phytocomplexes included in the bread, which enable an enhanced bioactivity thereof to be obtained in the resulting product.

SMILES: CCCCCCCCCCCCCCCCCCCCCCCCCCCCO [octacosanol]
- action on the enzyme HMG-CoA reductase: reducing the quantity thereof
